This is an account of results in patent US20210236391A1, “Dental Product, use of a Dental Product and methods of use of a dental product” (DR HEFF'S PRODUCTS LIMITED, priority 2015, published 2021).

Entries after “also recorded” stand apart in the source; their conditions may differ.

A short description of test [1]: Rhodamine B fluorescence intensity (lesion porosity) after in vitro pH-proteolytic cycling. More on the design: species or system bovine. The following applies: for decrease percentage of the mean Rhodamine fluorescence (F) exhibited by caries lesions: after treatments (suspended in artificial saliva, 5 times per day for 3 minutes) and pH-proteolytic cycling for 8 days. How it is done: An objective of the experimental study was to investigate the effects of mints containing bioactive agents, specifically the xylitol, ACP and eGCG, in the re-mineralization of root dentin surfaces. […] The caries lesions depths and porosity as well as mineral density (hydroxyapatite content) were estimated using fluorescence microscopy and micro-computed tomography. Extracted sound bovine incisors were freshly collected from a slaughterhouse, cleaned and stored at 4° C. in 0.1% thymol for no longer than 2 weeks. Two root fragments (5×4×1 mm) from the cervical portion (mesial and distal) of the root were obtained from each tooth using diamond disk mounted in a cutting machine (Isomet 1000, Buehler, Lake Bluff, IL, USA). The dentin surfaces were polished using #600 and #800 abrasive paper (Carbimet, Buehler) under constant water irrigation. The entire surface of the fragments was sealed with acid-resistant nail polish, except for a 4×3 mm window on the polished dentin surface. The root fragments were placed in a demineralization solution (2.2 mM CaCl2.2H2O, 2.2 mM KH2PO4, 50 mM acetate, pH 4.6) for 96 h at 37° C. to create initial caries lesions of approximately 120 μm-deep (1). Following lesion development, the fragments were rinsed thoroughly with deionized water, and half of the specimens' windows were covered with an acid-resistant nail polish to maintain the baseline lesion. […] The concentrations were optimized to simulate the in vivo conditions in which the normal salivary flow is 0.5 mL/min (2). Thus, one third of the mints (g) were dissolved in 0.5 ml of artificial saliva and the ingredients concentrations were kept at same ratio as in the original mint formulation. […] All solutions were prepared daily prior to use. In addition to pH cycling, the overnight re-mineralization solutions had bacterial collagenase from Chlostridium Histolycum (100 μg/ml) to simulate enzymatic challenge. Each specimen was sectioned perpendicularly to the varnished area so that each section included the baseline and post-treatment lesions. Half of each sample was used for fluorescence microscopy and the other half was used for micro-computed tomography. […] The assumption of equality of variances and normal distribution of errors were verified using Levene's test. Analysis of variance (ANOVA) followed by Scheffe or Game-Howell tests were performed at α=0.05 using SPSS 20 software.

Test [2] is described as follows: Apparent mineral density by micro-computed tomography after in vitro pH-proteolytic cycling. More on the design: species or system bovine. The following applies: for increase percentage of the apparent mineral density (mg HA/ccm): mean values after pH-proteolytic cycling and treatments, micro-CT; for effect on mineral density of the caries lesion (in words): after pH-proteolytic cycling and treatments, compared to AS control. The procedure:
An objective of the experimental study was to investigate the effects of mints containing bioactive agents, specifically the xylitol, ACP and eGCG, in the re-mineralization of root dentin surfaces. […] The caries lesions depths and porosity as well as mineral density (hydroxyapatite content) were estimated using fluorescence microscopy and micro-computed tomography. Extracted sound bovine incisors were freshly collected from a slaughterhouse, cleaned and stored at 4° C. in 0.1% thymol for no longer than 2 weeks. Two root fragments (5×4×1 mm) from the cervical portion (mesial and distal) of the root were obtained from each tooth using diamond disk mounted in a cutting machine (Isomet 1000, Buehler, Lake Bluff, IL, USA). The dentin surfaces were polished using #600 and #800 abrasive paper (Carbimet, Buehler) under constant water irrigation. The entire surface of the fragments was sealed with acid-resistant nail polish, except for a 4×3 mm window on the polished dentin surface. The root fragments were placed in a demineralization solution (2.2 mM CaCl2.2H2O, 2.2 mM KH2PO4, 50 mM acetate, pH 4.6) for 96 h at 37° C. to create initial caries lesions of approximately 120 μm-deep (1). Following lesion development, the fragments were rinsed thoroughly with deionized water, and half of the specimens' windows were covered with an acid-resistant nail polish to maintain the baseline lesion. […] The concentrations were optimized to simulate the in vivo conditions in which the normal salivary flow is 0.5 mL/min (2). Thus, one third of the mints (g) were dissolved in 0.5 ml of artificial saliva and the ingredients concentrations were kept at same ratio as in the original mint formulation. […] All solutions were prepared daily prior to use. In addition to pH cycling, the overnight re-mineralization solutions had bacterial collagenase from Chlostridium Histolycum (100 μg/ml) to simulate enzymatic challenge. Each specimen was sectioned perpendicularly to the varnished area so that each section included the baseline and post-treatment lesions. Half of each sample was used for fluorescence microscopy and the other half was used for micro-computed tomography. Specimens (n=6 per group) were fixed in 10% neutral buffered formalin for 24 h. Specimens were held securely in a specimen holder, which were soaked with phosphate-buffered saline (PBS). […] The manufacturer's software was used to filter noise and segment the data at a threshold of 220. Tissue mineral density (based on a standard calibration phantom provided by the manufacturer) was determined (mg/cc of hydroxyapatite). […] The assumption of equality of variances and normal distribution of errors were verified using Levene's test. […]

The nature of test [3]: Caries lesion depth by fluorescence microscopy after in vitro pH-proteolytic cycling. More on the design: species or system bovine. The following applies: after treatments and pH-proteolytic cycling for 8 days. The procedure:
An objective of the experimental study was to investigate the effects of mints containing bioactive agents, specifically the xylitol, ACP and eGCG, in the re-mineralization of root dentin surfaces. […] The caries lesions depths and porosity as well as mineral density (hydroxyapatite content) were estimated using fluorescence microscopy and micro-computed tomography. Extracted sound bovine incisors were freshly collected from a slaughterhouse, cleaned and stored at 4° C. in 0.1% thymol for no longer than 2 weeks. […] Half of each sample was used for fluorescence microscopy and the other half was used for micro-computed tomography. […] Samples were analyzed with a Fluorescence Microscope (DM16000 B, Leica), using TEX and DIC (differential interference contrast) channels. Fluorescence intensity line profiles obtained in TEX channel images of the pre and post-treatment lesions were analyzed in Image J Software (NIH), thereby providing mean intensity values (per pixel) for red emission channel of each image. The fluorescence intensity is directly related to the porosity of the de-mineralized dentin, where increased porosity is directly related to increased fluorescence intensity. Fluorescence data was presented as percentage difference from post-treatment and pre-treatment lesions of each specimen. […]

A short description of test [4]: In vitro pH-proteolytic cycling model, overall re-mineralization and tissue observations. More on the design: species or system bovine. From the text: An objective of the experimental study was to investigate the effects of mints containing bioactive agents, specifically the xylitol, ACP and eGCG, in the re-mineralization of root dentin surfaces. […] The caries lesions depths and porosity as well as mineral density (hydroxyapatite content) were estimated using fluorescence microscopy and micro-computed tomography.
The objective of this study was to investigate the effects of mints containing bioactive agents (e.g. xylitol, ACP and eGCG) in the re-mineralization of root dentin surfaces. […] The caries lesions depths and porosity as well as mineral density (hydroxyapatite content) were estimated using fluorescence microscopy and micro computed tomography.
Extracted sound bovine incisors were freshly collected from a slaughterhouse, cleaned and stored at 4° C. in 0.1% thymol for no longer than 2 weeks. Two root fragments (5×4×1 mm) from the cervical portion (mesial and distal) of the root were obtained from each tooth using diamond disk mounted in a cutting machine (Isomet 1000, Buehler, Lake Bluff, IL, USA). The dentin surfaces were polished using #600 and #800 abrasive paper (Carbimet, Buehler) under constant water irrigation. The entire surface of the fragments was sealed with acid-resistant nail polish, except for a 4×3 mm window on the polished dentin surface. […]

For test [5] the following is noted: five xylitol lozenges spaced across the day, caries-active adults; cited from earlier work.

For `[F-].[Na+]` [NaF, sodium fluoride], the “decrease percentage of the mean Rhodamine fluorescence (F) exhibited by caries lesions” value (from here on “decrease percentage”) in test [1] is listed as 5.60%. Further, the “increase percentage of the apparent mineral density (mg HA/ccm)” value in test [2] came to 165.53%.

Consider `O=C(O[C@@H]1Cc2c(O)cc(O)cc2O[C@@H]1c1cc(O)c(O)c(O)c1)c1cc(O)c(O)c(O)c1` [eGCG, epigallocatechin gallate], for which the “caries lesion depth change from initial lesions (in words)” value in test [3] is on record as “Significant (% caries lesion depth) decrease”. Besides, in test [1], the “decrease percentage” value is 85.72%. Also, the “lesion porosity / fluorescence decrease compared to AS (negative control), statistical significance” value in test [1] (after treatments and pH-proteolytic cycling for 8 days) is listed as “statistically significant differences; also recorded: significant decrease in lesion porosity”. Further, in test [2], the “effect on mineral density of the caries lesion (in words)” value is recorded as “promotes mineral density similar to fluoride; also recorded: increased mineral density” and the “increase percentage of the apparent mineral density (mg HA/ccm)” value is recorded as 70.12%.

Take `OC[C@@H](O)[C@H](O)[C@@H](O)CO` [xylitol]: in test [1], the “decrease percentage” value came to 34.92%. Further, the “effect on mineral density of the caries lesion (in words)” value in test [2] is “does not help to increase mineral density”. Moreover, the dental tissue loss result in test [4] (after pH-proteolytic cycling and treatments, in artificial saliva) is reported as “dental tissue loss occurs; also recorded: Dental tissue loss was mainly observed”. The “caries re-mineralization (overall conclusion)” value in test [4] (artificially induced root caries, in vitro pH-proteolytic cycling) was “no significant effect”. Besides, in test [5], the “caries-preventive effect on root surfaces” value is given as “appears to have a caries-preventive effect on root surfaces” and the “incidence of smooth-surface, occusal-surface or proximal-surface caries, xylitol vs control participants” value is listed as “no statistically significant difference”.
